Laboratory results as given in patent US8901118B2, “Compounds and methods for kinase modulation, and indications therefor” (Plexxikon Inc., priority 2010, dated 2014).

Assays:
c-Kit kinase = c-Kit kinase (Homo sapiens, UniProt P10721); test: c-Kit kinase biochemical activity assay (AlphaScreen, biotin-(E4Y)10 phosphorylation); conditions: 100 μM ATP; read-out: Biochemical Inhibition IC50 Kit
Outline: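 Phosphorylation of 30 nM biotin-(E4Y)10 by c-Kit (0.75 ng per reaction) with 100 µM ATP in HEPES pH 7.5 buffer with Mg2+/Mn2+, 5% DMSO, 1 h at room temperature; 8-point 1:2 compound dilutions. AlphaScreen detection with streptavidin donor and PY20 acceptor beads after EDTA stop. IC50 from signal versus concentration.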

[1] = Relative solubility by turbidity in aqueous buffers (pH 1.5, 4.5, 6.8, 7.4); type: physicochemical; conditions: for turbidity threshold (L, M, H) 1.4: pH 1.5 (SGF); for turbidity threshold (L, M, H) 4.5: pH 4.5 (SIF); for turbidity threshold (L, M, H) 6.8: pH 6.8 (SIF); for turbidity threshold (L, M, H) 7.4: pH 7.4 (HEPES)
Outline: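 Twofold DMSO dilutions of a 25 mM stock were spiked into SGF (0.5M NaCl, pH 1.5), SIF (0.05M NaH2PO4, pH 4.5 and 6.8) or HEPES buffer (10 mM HEPES, 150 mM NaCl, pH 7.4). Absorbance was read at 490, 535 and 650 nm. The endpoint is the concentration crossing O.D. 0.01, averaged across wavelengths.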

CYP3A4(BQ) = CYP3A4(BQ) (Homo sapiens, UniProt P08684); test: CYP3A4(BQ) inhibition; type: in vitro ADME; conditions: CYP3A4, substrate BQ; read-out: Cyp IC50 3A4(BQ)
Chain of CYP3A4(BQ) (P08684 whole entry): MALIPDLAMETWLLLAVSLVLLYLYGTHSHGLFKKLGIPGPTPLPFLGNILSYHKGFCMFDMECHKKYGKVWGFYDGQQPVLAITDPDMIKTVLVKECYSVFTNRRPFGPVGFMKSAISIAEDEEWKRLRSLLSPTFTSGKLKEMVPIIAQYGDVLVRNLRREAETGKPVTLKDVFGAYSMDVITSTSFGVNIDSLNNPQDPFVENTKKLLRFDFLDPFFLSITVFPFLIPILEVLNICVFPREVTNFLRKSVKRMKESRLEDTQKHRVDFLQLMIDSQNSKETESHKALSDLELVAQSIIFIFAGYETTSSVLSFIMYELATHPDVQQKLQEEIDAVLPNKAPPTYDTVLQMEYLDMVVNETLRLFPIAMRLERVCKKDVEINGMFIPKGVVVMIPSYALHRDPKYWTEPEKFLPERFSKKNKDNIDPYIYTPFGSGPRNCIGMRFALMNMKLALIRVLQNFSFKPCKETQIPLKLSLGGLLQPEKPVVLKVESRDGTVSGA
Outline: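 Inhibition of human CYP3A4 (BQ substrate) was measured by fluorescence, since blocking metabolism of a known substrate lowers the fluorescent product signal. Compounds dissolved in DMSO at 100 mM were diluted into acetonitrile and then into NADPH regeneration cofactor mix, serially diluted 1:1 across 10 points, and preincubated in 384 well plates for 10 minutes at 37° C.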

Chain of c-Kit kinase (P10721 26-976): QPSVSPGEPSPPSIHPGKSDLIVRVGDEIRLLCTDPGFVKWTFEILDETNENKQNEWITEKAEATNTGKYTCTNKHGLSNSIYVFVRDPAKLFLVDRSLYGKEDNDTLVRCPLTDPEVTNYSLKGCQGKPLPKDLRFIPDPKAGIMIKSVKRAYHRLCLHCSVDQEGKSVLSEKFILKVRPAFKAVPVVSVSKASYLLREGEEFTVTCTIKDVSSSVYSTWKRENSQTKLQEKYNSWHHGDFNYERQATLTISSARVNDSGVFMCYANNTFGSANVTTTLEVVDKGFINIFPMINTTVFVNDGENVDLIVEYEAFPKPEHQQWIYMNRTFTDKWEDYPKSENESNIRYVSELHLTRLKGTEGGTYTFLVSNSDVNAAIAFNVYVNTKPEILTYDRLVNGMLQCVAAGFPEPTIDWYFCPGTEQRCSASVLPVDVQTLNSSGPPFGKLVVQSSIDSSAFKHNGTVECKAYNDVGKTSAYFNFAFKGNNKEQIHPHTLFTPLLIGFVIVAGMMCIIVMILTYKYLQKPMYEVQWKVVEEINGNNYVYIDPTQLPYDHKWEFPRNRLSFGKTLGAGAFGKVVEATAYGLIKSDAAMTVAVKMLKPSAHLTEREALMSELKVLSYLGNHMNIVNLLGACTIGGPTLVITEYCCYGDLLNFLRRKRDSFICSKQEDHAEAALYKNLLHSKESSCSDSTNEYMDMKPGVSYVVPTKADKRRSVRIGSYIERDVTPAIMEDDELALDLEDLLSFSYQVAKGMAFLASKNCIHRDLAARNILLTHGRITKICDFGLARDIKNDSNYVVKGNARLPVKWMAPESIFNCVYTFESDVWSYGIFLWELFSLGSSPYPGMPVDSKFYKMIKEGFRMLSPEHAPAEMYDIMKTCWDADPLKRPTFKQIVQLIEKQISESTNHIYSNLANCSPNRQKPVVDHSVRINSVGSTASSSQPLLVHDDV

Row | SMILES | IC50 (c-Kit kinase) [µM] | turbidity threshold (L, M, H) 1.4 [1] | turbidity threshold (L, M, H) 4.5 [1] | turbidity threshold (L, M, H) 6.8 [1] | turbidity threshold (L, M, H) 7.4 [1] | IC50 (CYP3A4(BQ)) [µM]
1 | COc1cncc(Nc2ccc(C(=O)c3c[nH]c4ncnc(NC(C)C)c34)c(F)n2)c1 [Compound P-4106, [2-fluoro-6-[(5-methoxy-3-pyridyl)amino]-3-pyridyl]-[4-(isopropylamino)-7H-pyrrolo[2,3-d]pyrimidin-5-yl]methanone] | < 1 | M (moderate solubility if the threshold concentration is 31.3 μM to 250 μM) | M (moderate solubility if the threshold concentration is 31.3 μM to 250 μM) | L (low solubility if the threshold concentration is <31.3 μM) | M (moderate solubility if the threshold concentration is 31.3 μM to 250 μM) | > 10
2 | COc1cncc(Nc2ccc(C(=O)c3c[nH]c4ncnc(NC5CC5)c34)c(F)n2)c1 [Compound P-4107, [4-(cyclopropylamino)-7H-pyrrolo[2,3-d]pyrimidin-5-yl]-[2-fluoro-6-[(5-methoxy-3-pyridyl)amino]-3-pyridyl]methanone] | < 0.1 | M (moderate solubility if the threshold concentration is 31.3 μM to 250 μM) | M (moderate solubility if the threshold concentration is 31.3 μM to 250 μM) | M (moderate solubility if the threshold concentration is 31.3 μM to 250 μM) | M (moderate solubility if the threshold concentration is 31.3 μM to 250 μM) | > 10
3 | CNc1ncnc2[nH]cc(C(=O)c3ccc(Nc4cncc(OC)c4)nc3F)c12 [Compound P-4108, [2-fluoro-6-[(5-methoxy-3-pyridyl)amino]-3-pyridyl]-[4-(methylamino)-7H-pyrrolo[2,3-d]pyrimidin-5-yl]methanone] | < 1 | H (high solubility if the threshold concentration is >250 μm) | M (moderate solubility if the threshold concentration is 31.3 μM to 250 μM) | M (moderate solubility if the threshold concentration is 31.3 μM to 250 μM) | M (moderate solubility if the threshold concentration is 31.3 μM to 250 μM) | > 10
4 | CC(C)Nc1ncnc2[nH]cc(C(=O)c3ccc(NC4CCCCC4)nc3Cl)c12 [Compound P-4109, [2-chloro-6-(cyclohexylamino)-3-pyridyl]-[4-(isopropylamino)-7H-pyrrolo[2,3-d]pyrimidin-5-yl]methanone] | < 1 | L (low solubility if the threshold concentration is <31.3 μM) | L (low solubility if the threshold concentration is <31.3 μM) | L (low solubility if the threshold concentration is <31.3 μM) | L (low solubility if the threshold concentration is <31.3 μM) | > 10
5 | CNc1ncnc2[nH]cc(C(=O)c3ccc(NC4CCCCC4)nc3Cl)c12 [Compound P-4110, [2-chloro-6-(cyclohexylamino)-3-pyridyl]-[4-(methylamino)-7H-pyrrolo[2,3-d]pyrimidin-5-yl]methanone] | < 1 | M (moderate solubility if the threshold concentration is 31.3 μM to 250 μM) | L (low solubility if the threshold concentration is <31.3 μM) | L (low solubility if the threshold concentration is <31.3 μM) | L (low solubility if the threshold concentration is <31.3 μM) | > 10
6 | Cc1ccc(Nc2ccc(C(=O)c3c[nH]c4ncnc(NC5CCCCC5)c34)c(F)n2)cn1 [Compound P-4111, [4-(cyclohexylamino)-7H-pyrrolo[2,3-d]pyrimidin-5-yl]-[2-fluoro-6-[(6-methyl-3-pyridyl)amino]-3-pyridyl]methanone] | < 1 | H (high solubility if the threshold concentration is >250 μm) | L (low solubility if the threshold concentration is <31.3 μM) | L (low solubility if the threshold concentration is <31.3 μM) | L (low solubility if the threshold concentration is <31.3 μM) | 5 to 10
7 | Cc1ccc(Nc2ccc(C(=O)c3c[nH]c4ncnc(NCC(F)(F)F)c34)c(F)n2)cn1 [Compound P-4112, [2-fluoro-6-[(6-methyl-3-pyridyl)amino]-3-pyridyl]-[4-(2,2,2-trifluoroethylamino)-7H-pyrrolo[2,3-d]pyrimidin-5-yl]methanone] | < 1 | M (moderate solubility if the threshold concentration is 31.3 μM to 250 μM) | M (moderate solubility if the threshold concentration is 31.3 μM to 250 μM) | M (moderate solubility if the threshold concentration is 31.3 μM to 250 μM) | H (high solubility if the threshold concentration is >250 μm) | > 10
8 | CCCNc1ncnc2[nH]cc(C(=O)c3ccc(Nc4ccc(C)nc4)nc3F)c12 [Compound P-4114, [2-fluoro-6-[(6-methyl-3-pyridyl)amino]-3-pyridyl]-[4-(propylamino)-7H-pyrrolo[2,3-d]pyrimidin-5-yl]methanone] | < 0.1 | H (high solubility if the threshold concentration is >250 μm) | L (low solubility if the threshold concentration is <31.3 μM) | L (low solubility if the threshold concentration is <31.3 μM) | L (low solubility if the threshold concentration is <31.3 μM) | > 10
9 | CNc1ncnc2[nH]cc(C(=O)c3ccc(Nc4ccc(C)nc4)nc3F)c12 [Compound P-4115, [2-fluoro-6-[(6-methyl-3-pyridyl)amino]-3-pyridyl]-[4-(methylamino)-7H-pyrrolo[2,3-d]pyrimidin-5-yl]methanone] | < 0.1 | H (high solubility if the threshold concentration is >250 μm) | M (moderate solubility if the threshold concentration is 31.3 μM to 250 μM) | M (moderate solubility if the threshold concentration is 31.3 μM to 250 μM) | M (moderate solubility if the threshold concentration is 31.3 μM to 250 μM) | > 10
10 | CCc1ccc(Nc2ccc(C(=O)c3c[nH]c4ncnc(NC5CCOCC5)c34)c(F)n2)cn1 [Compound P-4116, [6-[(6-ethyl-3-pyridyl)amino]-2-fluoro-3-pyridyl]-[4-(tetrahydropyran-4-ylamino)-7H-pyrrolo[2,3-d]pyrimidin-5-yl]methanone] | < 0.1 | H (high solubility if the threshold concentration is >250 μm) | M (moderate solubility if the threshold concentration is 31.3 μM to 250 μM) | M (moderate solubility if the threshold concentration is 31.3 μM to 250 μM) | M (moderate solubility if the threshold concentration is 31.3 μM to 250 μM) | > 10
11 | CCc1ccc(Nc2ccc(C(=O)c3c[nH]c4ncnc(NC(C)C)c34)c(F)n2)cn1 [Compound P-4117, [6-[(6-ethyl-3-pyridyl)amino]-2-fluoro-3-pyridyl]-[4-(isopropylamino)-7H-pyrrolo[2,3-d]pyrimidin-5-yl]methanone] | < 0.1 | H (high solubility if the threshold concentration is >250 μm) | L (low solubility if the threshold concentration is <31.3 μM) | L (low solubility if the threshold concentration is <31.3 μM) | L (low solubility if the threshold concentration is <31.3 μM) | > 10
